According to BindingDB's records for doi:10.1021/jm9606599 (National Institute of Diabetes and Digestive and Kidney …, 1997):
pIC50: −log10 of the molar value.

assay: Sigma receptor binding was determined by labeling with radioligand [3H](+)-pentazocine on frozen membranes obtained from frozen guinea pig brain

Row | SMILES | pIC50
1 | Fc1ccc(C(OCCN2CCN(C/C=C/c3ccccc3)CC2)c2ccc(F)cc2)cc1 | 7.29
2 | Fc1ccc(C(OCCN2CCN(CCCc3ccco3)CC2)c2ccc(F)cc2)cc1 [1-{2-[Bis-(4-fluoro-phenyl)-methoxy]-ethyl}-4-(3-furan-2-yl-propyl)-piperazine] | 7.21
3 | Fc1ccc(C(OCCN2CCN(CCCc3cccnc3)CC2)c2ccc(F)cc2)cc1 [1-{2-[Bis-(4-fluoro-phenyl)-methoxy]-ethyl}-4-(3-pyridin-3-yl-propyl)-piperazine] | 7.10
4 | Fc1ccc(C(OCCN2CCN(CCCc3cccs3)CC2)c2ccc(F)cc2)cc1 [1-{2-[Bis-(4-fluoro-phenyl)-methoxy]-ethyl}-4-(3-thiophen-2-yl-propyl)-piperazine] | 7.42
5 | Fc1ccc(C(OCCN2CCN(C/C=C/c3ccco3)CC2)c2ccc(F)cc2)cc1 [1-{2-[Bis-(4-fluoro-phenyl)-methoxy]-ethyl}-4-((E)-3-furan-2-yl-allyl)-piperazine] | 7.37
6 | Fc1ccc(C(OCCN2CCN(C/C=C/c3cccnc3)CC2)c2ccc(F)cc2)cc1 [1-{2-[Bis-(4-fluoro-phenyl)-methoxy]-ethyl}-4-((E)-3-pyridin-3-yl-allyl)-piperazine] | 7.23
7 | Fc1ccc(C(OCCN2CCN(C/C=C/c3cccs3)CC2)c2ccc(F)cc2)cc1 [1-{2-[Bis-(4-fluoro-phenyl)-methoxy]-ethyl}-4-((E)-3-thiophen-2-yl-allyl)-piperazine] | 7.39
